The record followed here is patent US7378387B2, “Method of suppressing immune response by reducing intracellular content of glutathione in macrophages and monocytes” (Ajinomoto Co., Inc., priority 1997, dated 2008).

The test system of experiment [1] is IL-12. In words: IL-12 production by MΦ induced by intraperitoneal injection of substances (Example 7). The format is in vivo, mouse. Here is the method:
The amount of IL-12 was determined through bioassay using cells of human T cell strain 2D6 (J. Leukocyte Biology, vol. 61, p. 346, 1997).
2D6 cells which had been incubated in an RPMI 1640 medium containing 500 pg/ml of recombinant human IL-12, 50 μM of 2-mercaptoethanol and 10% FCS (fetal calf serum) were moved to a tube, and centrifugally washed three times with the above-mentioned medium without IL-12 and cell density was adjusted to 1×10^5/ml. The cell suspension was added in an amount of 100 μl each to a 96-well flat bottom plate containing a sample serially diluted in advance with an RPMI 1640 medium containing 50 μM of 2-mercaptoethanol and 10% FCS in an amount of 100 μl each. Subsequently, the mixture was charged into a 5% […] incubator of 37° C., and incubated for 48 hours. For final 6 hours, ^3H-TdR was pulsed (a substance adjusted to 370 kBq/ml in an RPMI 1640 medium containing 50 μM of 2-mercaptoethanol and 10% FCS was added in an amount of 50 μl each). The cells a harvested, and the radioactivity was measured using a β counter (Matrix 96, supplied by Packard).
It was examined whether there is a difference in the IL-12 production between LNT-induced MΦ and LPS-induced MΦ. […] Next, the same analysis was conducted using MΦ induced by intraperitoneally injecting substances for changing the GSH content in cells.

Experiment [2] relates to spontaneous onset of insulin-dependent diabetes mellitus. In words: Onset of diabetes mellitus in NOD mice dosed at age 3 to 6 and 9 to 11 weeks (Example 24). Conditions: route not given, 0.1 mg/kg; 15 times in total; judged on week 22; saline 60. The format is in vivo. From the text: (§1) NOD mice purchased from Nippon Clair, Co. were naturally mated together. Among the off spring mice, a colony of NOD mice with a high frequency of the spontaneous onset of insulin-dependent diabetes mellitus was established. Female NOD mice from the colony were used for the present experiment. […] Urine glucose was detected, using Uropaper (BM Test Glucose 5000, manufactured by Yamanouchi Pharmaceuticals, Co. Ltd.). The onset was judged on week 22.

Experiment [3] concerns adjuvant-induced arthritis. In words: Adjuvant-induced arthritis (AA) in rats, joint swelling (Examples 18 and 19). The format is in vivo, Lewis rats. Here is the method:
Adjuvant-induced arthritis was triggered in Lewis rats in a conventional manner; and the effects of chemical agents were examined in the animals. Adjuvant-induced arthritis is well known as an experimental arthritis inducible in rats [Taurog et al., Meth. Enzymol. 162, 339-355 (1988)]. […] An adjuvant is administered at 1 mg/0.1 ml per rate at a site of caudal root. The edema reaches its peak about 2 to 3 weeks after the administration of the adjuvant. The edema is triggered by inflammatory infiltration of monocytes. Swollen joints are measured with a micrometer every day; comparing the diameters of the joints prior to and after adjuvant administration and after initiation of the treatment with chemical agents with the diameters of the joints in the control group, the effects of the chemical agents were expressed as the ratio in % of joint swelling in the experimental groups to joint swelling in the control group. The effects were determined on day 15 after adjuvant administration. The chemical agents were given, starting the day next to the day of adjuvant administration, and every 3 days thereafter.
A single dose is 1 mg/kg for (NAC)2 and (NAC-OMe)2; 100 mg/kg for NAC; and 0.1 mg/kg for lentinan.
Adjuvant-induced arthritis was induced in Lewis rats in a conventional manner. In the same manner as in Example 11, the effects of chemical agents were examined in these rats. The conditions were the same as described above.

The test system of experiment [4] is peritoneal exudate cells (macrophages). In words: Induction of oxidative and reductive macrophages, monochlorobimane/ACAS (Example 1). The format is in vivo. Conditions: LPS 20 μg or lentinan 100 μg three times every two days into the abdominal cavity of a mouse. Here is the method: These were clarified by adhering peritoneal exudate cells to the plastic surface, then reacting the same with 10 μM of monochlorobimane at 37° C. for 30 minutes and conducting analysis with Adherent Cell Analyzing System (ACAS). The increase in the amounts of oxidative macrophages can easily be measured visually from the fact that almost no reaction product is observed, that is, gray or blue image is obtained, and the increase in the amounts of reductive macrophages from the fact that the red or yellow image is obtained, respectively.

Experiment [5] has as its system spontaneous onset of insulin-dependent diabetes mellitus. In words: Onset of diabetes mellitus in NOD mice dosed at age 3 to 6 weeks (Example 23). The format is in vivo. Conditions: intraperitoneal, three times per week, nine times. Here is the method:
as §1, with “Chemical agents were administered intraperitoneally, unless otherwise stated. […] (NAC)2 and (NAC-OMe)2 were at a single dose of 20 μg/animal; and NAC and GSHOEt were at a single dose of 2 μg/animal; and a single dose of lentinan” for “The onset”, “0.1 mg/kg.” for “judged on week 22.”

For experiment [6] the test system is unchanged. In words: Onset of diabetes mellitus in NOD mice dosed at age 9 to 11 weeks (Example 25). Conditions: route not given, nine times, judged on week 22, saline 67. It counts as in vivo. From the text: NOD mice purchased from Nippon Clair, Co. were naturally mated together. Among the off spring mice, a colony of NOD mice with a high frequency of the spontaneous onset of insulin-dependent diabetes mellitus was established. Female NOD mice from the colony were used for the present experiment. Chemical agents were orally or intraperitoneally administered to the NOD mice aged 9 to 11 weeks three times per week, in total nine times; and based on the test results of urine glucose, positive or negative, the onset of diabetes mellitus was followed once per week. Urine glucose was detected, using Uropaper (BM Test Glucose 5000, manufactured by Yamanouchi Pharmaceuticals, Co. Ltd.). The onset was judged on week 22; the doses were the same as in Example 24.

On to Lentinan [reference compound], for which, in experiment [1] (MΦ induced by intraperitoneal injection of the substance, stimulation with LPS and IFNγ), the IL-12 production is recorded as 1,312 pg/ml. Moreover, in experiment [1] (baseline values of the DEM and IL-4 experiments), the “IL-12 production of substance-induced MΦ, without DEM or IL-4” value came to 828 pg/mL. Also, the “Frequency (%) of onset of diabetes mellitus” value in experiment [2] is 0%; in experiment [6], 50%. The “Ratio in % of joint swelling in experimental groups to joint swelling in control group” value in experiment [3] (Table 3, day 15 after adjuvant, every 3 days, single dose 1 mg/kg (NAC)2 and (NAC-OMe)2, 100 mg/kg NAC, 0.1 mg/kg lentinan) is reported as 52%; in experiment [3] (Table 4, intravenous), 50%. Besides, the “type of macrophages induced (GSH by monochlorobimane, ACAS)” value in experiment [4] is given as “reductive macrophages were induced”. Further, the “Frequency (%) of onset of diabetes mellitus, on age 18 weeks” value in experiment [5] (saline 50) worked out at 10%. The “Frequency (%) of onset of diabetes mellitus, on age 22 weeks” value in experiment [5] (saline 80) came to 20%.
